According to ChEMBL document CHEMBL5046278, “Synthesis and Evaluation of Novel Tetrahydronaphthyridine CXCR4 Antagonists with Improved Drug-like Profiles” (J Med Chem, 2022):
pIC50: −log10 of the molar value.

Columns and labels:
Cytochrome P450 1A2 = Cytochrome P450 1A2 (Homo sapiens, UniProt P05177); assay: Inhibition of CYP1A2(unknown origin); type: ADME
[1] = Drug concentration in mouse plasma at 30 mg/kg, po measured at 12 hrs by LC-MS analysis; type: ADME, organism-based
[2] = Cmax in mouse at 10 mg/kg, po measured after 8 hrs by LC-MS/MS analysis; type: ADME, organism-based; parameters: route oral, time 8 hrs, dose 10 mg/kg; conditions: in vivo
[3] = Permeability of compound at pH 5.5 incubated for 4 hrs by PAMPA assay; type: ADME; conditions: read-out: permeability
[4] = biological target: C-X-C chemokine receptor type 2 (Homo sapiens) (UniProt P25025); assay: Inhibition of human CXCR2 at 10 uM relative to control
[5] = biological target: C-C chemokine receptor type 6 (Homo sapiens) (UniProt P51684); assay: Inhibition of human CCR6 at 10 uM relative to control
Homo sapiens [6] = species: Homo sapiens; assay: Selectivity index, ratio of IC50 for inhibition of recombinant human CYP3A4 to IC50 for antagonist activity at human CXCR4 receptor expressed in CCRF-CEM cells; type: cell-based
Homo sapiens [7] = species: Homo sapiens; assay: Selectivity index, ratio of IC50 for inhibition of kappa opioid receptor (unknown origin) to IC50 for antagonist activity at human CXCR4 receptor expressed in CCRF-CEM cells; type: cell-based
[8] = biological target: Kappa-type opioid receptor (Homo sapiens, UniProt P41145); assay: Inhibition of kappa opioid receptor (unknown origin)
Homo sapiens [9] = species: Homo sapiens; assay: Selectivity index, ratio of IC50 for inhibition of recombinant human CYP2C19 (unknown origin) to IC50 for antagonist activity at human CXCR4 receptor expressed in CCRF-CEM cells; type: cell-based
[10] = system: Human immunodeficiency virus 1; assay: Antiviral activity against HIV-1 Z1800M E4.02 (R5) pseudovirus infected in human TZM-blcells assessed as reduction in viral infectivity measured after 48 hrs of postinfection by luminescence assay; type: functional, organism-based; conditions: Human immunodeficiency virus 1, Z1800M E4.02 (R5), TZM-bl
[11] = Drug concentration in mouse plasma at 3 mg/kg, po measured at 12 hrs by LC-MS/MS analysis; type: ADME, organism-based
[12] = biological target: C-X-C chemokine receptor type 3 (Homo sapiens) (UniProt P49682); assay: Inhibition of human CXCR3 at 10 uM relative to control
[13] = Volume of distribution in mouse at 3 mg/kg, measured at 24 hrs by LC-MS analysis; type: ADME, organism-based; conditions: in vivo
[14] = biological target: C-C chemokine receptor type 4 (Homo sapiens) (UniProt P51679); assay: Inhibition of human CCR4 at 10 uM relative to control
Homo sapiens [15] = species: Homo sapiens; assay: Selectivity index, ratio of IC50 for inhibition of mu opioid receptor (unknown origin) to IC50 for antagonist activity at human CXCR4 receptor expressed in CCRF-CEM cells; type: cell-based
[16] = AUC(0 to 8 h) in mouse plasma at 10 mg/kg, po measured at 24 hrs by LC-MS/MS analysis; type: ADME, organism-based; parameters: route oral, dose 10 mg/kg, time 24 hrs; conditions: in vivo
Cytochrome P450 2C8 = Cytochrome P450 2C8 (Homo sapiens, UniProt P10632); assay: Inhibition of CYP2C8 (unknown origin); type: ADME
[17] = Metabolic stability in mouse liver microsomes assessed compound remaining measured after 10 mins in presence of NADPH; type: ADME, Microsome; conditions: read-out: Stability
Homo sapiens [18] = species: Homo sapiens; assay: Selectivity index, ratio of IC50 for inhibition of hERG receptor (unknown origin) to IC50 for antagonist activity at human CXCR4 receptor expressed in CCRF-CEM cells; type: cell-based
Homo sapiens [19] = species: Homo sapiens; assay: Selectivity index, ratio of IC50 for inhibition of recombinant human CYP1A2 to IC50 for antagonist activity at human CXCR4 receptor expressed in CCRF-CEM cells; type: cell-based
[20] = system: Human immunodeficiency virus 1; assay: Antiviral activity against HIV-1 NL4-3(X4) pseudovirus infected in human TZM-bl cells assessed as reduction in viral infectivity measured after 48 hrs of postinfection by luminescence assay; type: functional, organism-based; conditions: Human immunodeficiency virus 1, NL4-3(X4)
[21] = Cmax in mouse at 30 mg/kg, po measured after 8 hrs by LC-MS/MS analysis; type: ADME, organism-based; parameters: route oral, dose 30 mg/kg, time 8 hrs; conditions: in vivo
[22] = biological target: C-X-C chemokine receptor type 1 (Homo sapiens) (UniProt P25024); assay: Inhibition of human CXCR1 at 10 uM relative to control
[23] = Oral bioavailability in mouse at 10 mg/kg measured at 24 hrs by LC-MS/MS analysis; type: ADME, organism-based; conditions: in vivo
[24] = Metabolic stability in rat liver microsomes assessed compound remaining measured after 10 mins in presence of NADPH; type: ADME, Microsome; conditions: read-out: Stability
Homo sapiens [25] = species: Homo sapiens; assay: Selectivity index, ratio of IC50 for inhibition of alpha 2A adrenergic receptor (unknown origin) to IC50 for antagonist activity at human CXCR4 receptor expressed in CCRF-CEM cells; type: cell-based
[26] = biological target: T1, Muscarinic acetylcholine receptor M2 (Homo sapiens, UniProt P08172); assay: Inhibition of M2 mAChR receptor (unknown origin)
T1 sequence (P08172 whole entry): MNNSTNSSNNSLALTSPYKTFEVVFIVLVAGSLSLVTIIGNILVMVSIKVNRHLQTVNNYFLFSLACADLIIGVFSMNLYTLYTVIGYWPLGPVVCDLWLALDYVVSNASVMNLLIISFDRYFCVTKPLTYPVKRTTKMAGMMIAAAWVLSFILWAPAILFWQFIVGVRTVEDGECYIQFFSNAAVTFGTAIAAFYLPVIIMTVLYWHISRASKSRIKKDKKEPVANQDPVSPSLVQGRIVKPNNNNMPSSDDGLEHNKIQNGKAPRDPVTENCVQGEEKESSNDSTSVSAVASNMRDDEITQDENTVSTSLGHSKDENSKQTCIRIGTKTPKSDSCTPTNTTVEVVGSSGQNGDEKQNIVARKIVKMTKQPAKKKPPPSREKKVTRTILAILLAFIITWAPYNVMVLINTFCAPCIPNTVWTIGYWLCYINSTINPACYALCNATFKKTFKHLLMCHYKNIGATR

[27] = Cmax in mouse at 3 mg/kg, po measured after 8 hrs by LC-MS/MS analysis; type: ADME, organism-based; parameters: route oral, time 8 hrs, dose 3 mg/kg; conditions: in vivo
[28] = biological target: C-C chemokine receptor type 7 (Homo sapiens) (UniProt P32248); assay: Inhibition of human CCR7 at 10 uM relative to control
Cytochrome P450 3A4 = Cytochrome P450 3A4 (Homo sapiens, UniProt P08684); assay: Inhibition of CYP3A4 (unknown origin); type: ADME
Homo sapiens [29] = species: Homo sapiens; assay: Selectivity index, ratio of IC50 for inhibition of recombinant human CYP2C9 to IC50 for antagonist activity at human CXCR4 receptor expressed in CCRF-CEM cells; type: cell-based
[30] = Therapeutic index, ratio of TC50 for human TZM-bl cells to IC50 for antiviral activity against HIV-1 NL4-3 (X4) pseudovirus infected in human TZM-bl cells assessed as reduction in viral infectivity; type: toxicity, cell-based
[31] = biological target: Voltage-gated inwardly rectifying potassium channel KCNH2 (Homo sapiens, UniProt Q12809); assay: Inhibition of human ERG by [3H]]Astemizole binding assay; type: toxicity
Chain of Voltage-gated inwardly rectifying potassium channel KCNH2 (Q12809 whole entry): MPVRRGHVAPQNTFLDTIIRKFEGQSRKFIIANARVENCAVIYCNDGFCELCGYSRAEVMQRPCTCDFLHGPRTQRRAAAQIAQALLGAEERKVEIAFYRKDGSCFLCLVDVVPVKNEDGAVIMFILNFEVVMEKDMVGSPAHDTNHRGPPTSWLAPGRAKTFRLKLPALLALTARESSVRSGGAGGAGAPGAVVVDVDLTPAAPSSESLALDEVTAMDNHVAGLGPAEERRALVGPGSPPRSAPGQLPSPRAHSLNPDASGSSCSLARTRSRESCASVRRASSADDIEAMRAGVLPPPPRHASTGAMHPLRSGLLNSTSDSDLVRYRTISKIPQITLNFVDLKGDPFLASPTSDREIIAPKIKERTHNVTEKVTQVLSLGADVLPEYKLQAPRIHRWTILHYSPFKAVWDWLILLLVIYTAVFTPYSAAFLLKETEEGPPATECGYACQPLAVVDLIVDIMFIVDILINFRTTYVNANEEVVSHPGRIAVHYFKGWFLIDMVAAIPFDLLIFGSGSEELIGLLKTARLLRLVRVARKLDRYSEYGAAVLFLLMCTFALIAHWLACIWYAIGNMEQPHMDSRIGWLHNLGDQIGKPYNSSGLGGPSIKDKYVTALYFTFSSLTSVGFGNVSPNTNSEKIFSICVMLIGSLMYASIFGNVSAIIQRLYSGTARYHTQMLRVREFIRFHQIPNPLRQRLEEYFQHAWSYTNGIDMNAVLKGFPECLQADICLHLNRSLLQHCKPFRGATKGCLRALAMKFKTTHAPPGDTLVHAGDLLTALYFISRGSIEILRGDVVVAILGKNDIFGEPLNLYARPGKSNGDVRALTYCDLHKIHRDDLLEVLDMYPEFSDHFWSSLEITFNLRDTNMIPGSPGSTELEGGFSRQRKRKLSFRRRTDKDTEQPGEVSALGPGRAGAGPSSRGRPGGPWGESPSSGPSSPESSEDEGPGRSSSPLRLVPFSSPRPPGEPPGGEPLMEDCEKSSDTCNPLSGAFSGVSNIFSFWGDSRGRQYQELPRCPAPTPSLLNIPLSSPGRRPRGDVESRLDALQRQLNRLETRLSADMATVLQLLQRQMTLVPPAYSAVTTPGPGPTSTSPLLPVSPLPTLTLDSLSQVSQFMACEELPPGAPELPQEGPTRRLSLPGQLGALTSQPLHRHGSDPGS

Chain of Kappa-type opioid receptor (P41145 whole entry): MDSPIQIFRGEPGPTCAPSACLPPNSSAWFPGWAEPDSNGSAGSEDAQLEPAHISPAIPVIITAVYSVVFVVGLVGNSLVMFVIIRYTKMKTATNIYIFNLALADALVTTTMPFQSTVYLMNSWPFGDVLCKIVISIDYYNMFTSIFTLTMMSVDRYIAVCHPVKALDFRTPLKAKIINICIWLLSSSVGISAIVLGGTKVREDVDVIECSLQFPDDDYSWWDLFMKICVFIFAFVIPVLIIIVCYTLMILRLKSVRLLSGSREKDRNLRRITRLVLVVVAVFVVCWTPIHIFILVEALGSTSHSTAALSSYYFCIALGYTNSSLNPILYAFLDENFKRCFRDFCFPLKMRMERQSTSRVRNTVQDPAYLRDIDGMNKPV
Chain of C-C chemokine receptor type 7 (Homo sapiens) (P32248 whole entry): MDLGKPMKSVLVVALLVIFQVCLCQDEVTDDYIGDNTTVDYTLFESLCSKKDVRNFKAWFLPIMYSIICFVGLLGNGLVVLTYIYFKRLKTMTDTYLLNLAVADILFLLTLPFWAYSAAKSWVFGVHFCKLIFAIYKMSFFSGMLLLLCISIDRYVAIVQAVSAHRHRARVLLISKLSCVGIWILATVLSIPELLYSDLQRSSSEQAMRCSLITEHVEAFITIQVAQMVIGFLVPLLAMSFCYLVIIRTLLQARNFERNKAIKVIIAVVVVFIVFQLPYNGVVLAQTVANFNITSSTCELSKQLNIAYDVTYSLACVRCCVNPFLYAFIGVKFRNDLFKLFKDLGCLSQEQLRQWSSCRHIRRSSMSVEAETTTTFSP
Chain of Cytochrome P450 3A4 (P08684 whole entry): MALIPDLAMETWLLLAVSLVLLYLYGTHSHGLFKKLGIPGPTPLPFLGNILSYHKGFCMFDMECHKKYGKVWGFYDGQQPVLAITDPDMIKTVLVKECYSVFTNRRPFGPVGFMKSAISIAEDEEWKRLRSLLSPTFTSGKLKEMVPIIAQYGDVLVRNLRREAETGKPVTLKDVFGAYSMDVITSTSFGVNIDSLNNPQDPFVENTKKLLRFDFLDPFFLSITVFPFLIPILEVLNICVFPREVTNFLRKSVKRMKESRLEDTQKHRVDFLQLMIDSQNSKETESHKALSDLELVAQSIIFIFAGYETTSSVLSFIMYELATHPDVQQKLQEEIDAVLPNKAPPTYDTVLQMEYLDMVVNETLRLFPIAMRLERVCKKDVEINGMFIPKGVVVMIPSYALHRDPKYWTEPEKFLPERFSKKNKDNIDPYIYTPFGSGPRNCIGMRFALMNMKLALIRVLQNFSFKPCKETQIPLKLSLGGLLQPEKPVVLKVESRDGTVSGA
Chain of C-X-C chemokine receptor type 1 (Homo sapiens) (P25024 whole entry): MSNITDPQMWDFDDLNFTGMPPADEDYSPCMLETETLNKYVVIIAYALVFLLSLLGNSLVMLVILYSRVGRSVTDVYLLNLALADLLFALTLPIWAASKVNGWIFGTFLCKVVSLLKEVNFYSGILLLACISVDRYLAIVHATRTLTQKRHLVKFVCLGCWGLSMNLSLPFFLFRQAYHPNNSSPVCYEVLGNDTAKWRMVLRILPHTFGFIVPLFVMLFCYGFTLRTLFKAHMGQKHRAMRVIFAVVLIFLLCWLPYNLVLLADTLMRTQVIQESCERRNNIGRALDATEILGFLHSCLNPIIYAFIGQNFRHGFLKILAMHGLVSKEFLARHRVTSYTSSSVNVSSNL
Chain of C-X-C chemokine receptor type 3 (Homo sapiens) (P49682 whole entry): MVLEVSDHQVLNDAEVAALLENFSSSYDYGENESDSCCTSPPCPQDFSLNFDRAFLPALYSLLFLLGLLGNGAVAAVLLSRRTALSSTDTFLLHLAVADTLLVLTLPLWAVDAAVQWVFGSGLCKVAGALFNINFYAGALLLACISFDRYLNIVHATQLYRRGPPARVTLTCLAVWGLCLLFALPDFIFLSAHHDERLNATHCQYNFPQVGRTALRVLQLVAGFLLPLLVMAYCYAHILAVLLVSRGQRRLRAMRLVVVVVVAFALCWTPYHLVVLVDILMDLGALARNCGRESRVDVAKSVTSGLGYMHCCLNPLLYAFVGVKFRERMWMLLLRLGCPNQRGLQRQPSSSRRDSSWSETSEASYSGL
Chain of Cytochrome P450 1A2 (P05177 whole entry): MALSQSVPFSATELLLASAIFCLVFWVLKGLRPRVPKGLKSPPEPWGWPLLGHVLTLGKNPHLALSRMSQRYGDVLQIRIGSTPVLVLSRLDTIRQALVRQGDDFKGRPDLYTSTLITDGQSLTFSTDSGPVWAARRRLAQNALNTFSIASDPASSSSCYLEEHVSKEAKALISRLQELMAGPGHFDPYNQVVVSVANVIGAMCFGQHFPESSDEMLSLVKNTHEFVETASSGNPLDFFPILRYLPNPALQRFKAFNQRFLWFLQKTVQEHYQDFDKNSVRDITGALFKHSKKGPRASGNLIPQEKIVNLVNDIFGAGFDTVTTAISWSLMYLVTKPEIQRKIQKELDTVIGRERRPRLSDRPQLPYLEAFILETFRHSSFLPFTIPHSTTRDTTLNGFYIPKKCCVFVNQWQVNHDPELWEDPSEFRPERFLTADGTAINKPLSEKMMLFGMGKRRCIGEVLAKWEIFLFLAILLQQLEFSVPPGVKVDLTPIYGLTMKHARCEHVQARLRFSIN
Chain of C-X-C chemokine receptor type 2 (Homo sapiens) (P25025 whole entry): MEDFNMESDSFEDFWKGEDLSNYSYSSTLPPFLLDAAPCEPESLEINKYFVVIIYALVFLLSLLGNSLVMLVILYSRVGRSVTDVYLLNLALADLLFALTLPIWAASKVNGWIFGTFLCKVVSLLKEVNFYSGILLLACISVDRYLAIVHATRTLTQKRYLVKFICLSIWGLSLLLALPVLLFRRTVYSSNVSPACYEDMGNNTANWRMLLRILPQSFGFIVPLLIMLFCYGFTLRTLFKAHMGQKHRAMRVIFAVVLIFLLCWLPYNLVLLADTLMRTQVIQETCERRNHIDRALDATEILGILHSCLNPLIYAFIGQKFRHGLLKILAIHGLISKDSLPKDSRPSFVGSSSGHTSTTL
Chain of Cytochrome P450 2C8 (P10632 whole entry): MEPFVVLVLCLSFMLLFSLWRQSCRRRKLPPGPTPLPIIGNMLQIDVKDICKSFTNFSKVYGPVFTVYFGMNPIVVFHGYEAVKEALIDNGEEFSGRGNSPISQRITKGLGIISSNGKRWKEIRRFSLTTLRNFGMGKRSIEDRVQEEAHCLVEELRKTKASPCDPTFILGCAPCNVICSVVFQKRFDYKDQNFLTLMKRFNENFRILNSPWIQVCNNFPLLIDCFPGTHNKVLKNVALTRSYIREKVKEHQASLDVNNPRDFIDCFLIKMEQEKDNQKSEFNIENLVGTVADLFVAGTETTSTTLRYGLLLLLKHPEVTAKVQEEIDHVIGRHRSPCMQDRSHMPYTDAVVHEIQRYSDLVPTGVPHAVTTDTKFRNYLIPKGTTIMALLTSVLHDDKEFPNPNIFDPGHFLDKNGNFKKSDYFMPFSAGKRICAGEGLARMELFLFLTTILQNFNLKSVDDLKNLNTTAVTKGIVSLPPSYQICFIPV
Chain of C-C chemokine receptor type 6 (Homo sapiens) (P51684 whole entry): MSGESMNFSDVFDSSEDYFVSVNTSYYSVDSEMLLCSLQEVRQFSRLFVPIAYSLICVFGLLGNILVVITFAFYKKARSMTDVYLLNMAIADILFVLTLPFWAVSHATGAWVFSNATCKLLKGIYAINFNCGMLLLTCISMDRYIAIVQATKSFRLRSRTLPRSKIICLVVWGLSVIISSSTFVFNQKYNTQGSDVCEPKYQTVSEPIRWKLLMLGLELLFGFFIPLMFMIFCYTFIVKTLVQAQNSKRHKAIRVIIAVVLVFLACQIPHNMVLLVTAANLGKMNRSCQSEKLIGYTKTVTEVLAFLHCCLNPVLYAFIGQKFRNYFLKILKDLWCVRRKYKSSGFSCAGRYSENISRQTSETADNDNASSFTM

With `CN(CCCCN(C[C@H]1Cc2ncccc2CN1)[C@H]1CCCc2cccnc21)C1CCC(F)(F)CC1` the pIC50 (Cytochrome P450 1A2) was < 4.70, the concentration at 12 h [1] was 34.8 ng/mL and the Cmax [2] was 54.8 ng/mL. The Papp at 4 h [3] was 1.5 ×10⁻⁶ cm/s, the inhibition [4] was < 5% and the inhibition [5] was < 5%. For the same compound, the Selectivity Index (Homo sapiens [6]) was > 710, the Selectivity Index (Homo sapiens [7]) was > 1000 and the pIC50 [8] was < 4.52. The Selectivity Index (Homo sapiens [9]) was > 710, the pIC50 [10] was < 5.00 and the concentration at 12 h [11] was 1.5 ng/mL. For the same compound, the inhibition [12] was < 5%, the Vd [13] was 96.3 L/kg and the inhibition [14] was < 5%. The Selectivity Index (Homo sapiens [15]) was > 1000, the AUC [16] was 190 h/ng/mL and the pIC50 (Cytochrome P450 2C8) was < 4.70. The remaining at 10 min [17] was 35%, the Selectivity Index (Homo sapiens [18]) was > 1000 and the Selectivity Index (Homo sapiens [19]) was > 710. The pIC50 [20] was 8.15, the Cmax [21] was 169 ng/mL and the inhibition [22] was < 5%. For the same compound, the bioavailability [23] was 21.5%, the remaining at 10 min [24] was 8% and the Selectivity Index (Homo sapiens [25]) was > 1000. The pIC50 [26] was < 4.52, the Cmax [27] was 12.8 ng/mL and the inhibition [28] was < 5%. For the same compound, the pIC50 (Cytochrome P450 3A4) was < 4.70, the Selectivity Index (Homo sapiens [29]) was > 710 and the selectivity ratio [30] was > 1000. For the same compound, the pIC50 [31] was 4.77.
